For 29 molecules, TGI and GI50 results are on record in PubChem BioAssay (NCI).

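Grown in 96-well plates, cells were treated for 48 hours with each compound at five concentrations. Insufficient inhibition: endpoint recorded as highest concentration tested. At the GI50, growth is halved. TGI: concentration producing complete growth inhibition.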 Some results are limits rather than exact numbers.

Holding throughout (experiment): NCI anticancer screen, dose series, 48 h
Test [1] concerns SK-MEL-5 melanoma.
Test [2] relates to SR leukemia.
Test [3] concerns NCI-H23 lung.
For test [4], the system named is COLO 205 colon.
The test system of test [5] is HL-60(TB) leukemia.
For test [6], the system named is U251 CNS.
Test [7] relates to SF-295 CNS.
Test [8] concerns K-562 leukemia.

For `Cc1nc2c(o1)C(=Nc1ccccc1)c1nc(C)oc1C2=Nc1ccccc1`, the TGI in test [1] is 2.34 µM; in test [2] it was more than 100 µM; in test [3], 63.7 µM; in test [4], more than 100 µM; in test [5], more than 100 µM; in test [6], 33.1 µM. Also, the TGI was 46.7 µM in test [7] and more than 100 µM in test [8].

As for `Clc1cccc(-c2nnc(-c3nn(-c4ccccc4)c4nc5ccccc5nc34)o2)c1`, the TGI in test [1], in test [3], in test [4], in test [5], in test [6] and in test [7] was more than 100 µM in each case. Also, the TGI in test [8] is more than 100 µM.

As to `COC1OC2COC(C)(C)OC2C(OC(C)=O)C1NC(=O)N(CCCl)N=O` (stereo unspecified), the TGI was more than 100 µM in test [1]; more than 100 µM in test [3]; more than 100 µM in test [4]; 53.3 µM in test [5]; more than 100 µM in test [6]; more than 100 µM in test [7]. Further, the TGI in test [8] is more than 100 µM.

As to `CC(=O)[CH-]C(=O)c1ccccc1.CC(=O)[CH-]C(=O)c1ccccc1.O=S(=O)([O-])c1cc([O-])c2c([O-])cc(S(=O)(=O)[O-])cc2c1.[Na+].[Zr+4]`, the GI50 is more than 100 µM in test [1]; more than 100 µM in test [5]; more than 100 µM in test [6]; 69.8 µM in test [7]; more than 100 µM in test [8]. The TGI in test [1], in test [5], in test [6], in test [7] and in test [8] was more than 100 µM throughout.

As for `COc1cc(/C=N/N=C(\N)NO)c(Cl)cc1O`, the TGI in test [1], in test [3], in test [4], in test [6], in test [7] and in test [8] was more than 100 µM in each case.

On to `Cc1cc(C)c(-c2noc(-c3ccc(Cl)cc3)c2C2=NCCCN2)c(C)c1`, for which the TGI in test [1] is 24.2 µM; in test [2], more than 100 µM; in test [3], 40.1 µM; in test [4], 35.1 µM; in test [5], 48.7 µM; in test [6], 25.8 µM. In addition, the TGI in test [7] amounted to 25.4 µM; in test [8], 37.7 µM.

On to `O=C(Nc1ccc(Cl)cc1Cl)OC(Cn1cncn1)c1ccc(Cl)cc1Cl` (stereo unspecified), for which the TGI in test [1] was 30.7 µM; in test [2], more than 100 µM; in test [3], 28.4 µM; in test [4], 31.5 µM; in test [5] it was more than 100 µM; in test [6] it was 29.7 µM. The TGI in test [7] is 31.4 µM; in test [8] it was more than 100 µM.

As to `COc1ccc(S(=O)(=O)N(CC(=O)O)c2ccccc2)cc1`, the TGI in test [1], in test [3], in test [4], in test [5], in test [6] and in test [7] was more than 100 µM in each case. This molecule also had a TGI in test [8] of more than 100 µM.

For the molecule `C/C=C1\CN2CCc3c([nH]c4ccccc34)C2CC1CCO` (stereo unspecified), the TGI in test [1], in test [2], in test [3], in test [4], in test [5] and in test [6] was more than 100 µM throughout. For the same molecule, the TGI in test [7] and in test [8] was more than 100 µM throughout.

`N#CC(C(=O)/C(=N\NC(N)=O)C(C#N)c1ccccc1)c1ccccc1` (stereo unspecified): the TGI in test [2], in test [3], in test [4], in test [5], in test [6] and in test [7] was more than 100 µM each time. Moreover, the TGI in test [8] is more than 100 µM.

In the case of `COc1c(-c2ccccc2)nc2ccc(Oc3ccccc3)nn12`, the TGI in test [1] is more than 63.2 µM; in test [2] it was more than 100 µM; in test [3] it was more than 96.5 µM; in test [4] it was more than 65 µM; in test [5], more than 57.3 µM; in test [6] it was more than 100 µM. Moreover, the TGI in test [7] and in test [8] was more than 100 µM throughout.

For the molecule `O=C1C2C3CC(C4C5C=CC(C5)C34)C2C2C3CC(C12)C1C2C=CC(C2)C31` (stereo unspecified), the TGI in test [1], in test [2], in test [3], in test [4], in test [5] and in test [6] was more than 100 µM throughout. The TGI in test [7] and in test [8] was more than 100 µM throughout.

For the molecule `CN(/N=C/c1ccnc2ccccc12)c1c([N+](=O)[O-])cc([N+](=O)[O-])cc1[N+](=O)[O-]`, the TGI in test [1] is more than 100 µM; in test [3], more than 100 µM; in test [4] it was more than 100 µM; in test [5], 61.2 µM; in test [6], more than 100 µM; in test [7], more than 100 µM. The molecule also showed a TGI in test [8] of more than 100 µM.

For `CCOc1ccccc1N=Nc1c(-c2ccccc2)nn(C(=O)CC(=O)Nc2cccc(C)c2)c1-c1ccccc1`, the TGI in test [1], in test [2], in test [3], in test [4], in test [5] and in test [6] was more than 100 µM in each case. In addition, the TGI in test [7] and in test [8] was more than 100 µM in each case.

On to `N/N=C(/Cc1nc2ccc(C(=O)c3ccccc3)cc2[nH]c1=O)C(=O)Nc1ccc([N+](=O)[O-])cc1[N+](=O)[O-]`, for which the TGI in test [1], in test [2], in test [3], in test [4], in test [6] and in test [7] was more than 100 µM in each case. The same molecule yielded a TGI in test [8] of more than 100 µM. Besides, the GI50 in test [2], in test [3], in test [4], in test [6], in test [7] and in test [8] was more than 100 µM throughout.

For `CN(/N=C\c1ccnc2ccccc12)c1ccc([N+](=O)[O-])cc1`, the TGI in test [1], in test [3], in test [4], in test [5], in test [6] and in test [7] was more than 100 µM in each case. In test [8], the TGI was more than 100 µM.

As to `CNS(=O)(=O)NNS(=O)(=O)c1ccc(OC)cc1`, the TGI in test [1], in test [2], in test [3], in test [4], in test [5] and in test [6] was more than 100 µM throughout. The TGI in test [7] and in test [8] was more than 100 µM throughout.

On to `CCNC(=O)OCc1c(COC(=O)NCC)c(-c2ccc(Cl)c(Cl)c2)n2c1CCC2`, for which the TGI stood at 29.8 µM in test [1]; 30.1 µM in test [2]; 26.3 µM in test [3]; 62.1 µM in test [4]; 22.2 µM in test [5]; 28.6 µM in test [6]. In addition, the TGI in test [7] came out at 36.7 µM; in test [8] it was 37.8 µM.

Take `COC(=O)[C@@H]1Cc2c([nH]c3ccccc23)[C@H](c2ccccc2)N1`: the TGI in test [1] was 63.4 µM; in test [2] it was more than 100 µM; in test [3] it was more than 100 µM; in test [4] it was 38.6 µM; in test [5], more than 100 µM; in test [6], more than 100 µM. The TGI was 64.4 µM in test [7] and more than 100 µM in test [8].

With `O=C(Nc1ccc(Cl)c(Cl)c1)C(=O)C(C(=O)c1ccccc1-c1ccccc1)C1OC(=O)c2ccccc21` (stereo unspecified), the TGI in test [1] amounted to 30.3 µM; in test [3], 24.6 µM; in test [4], 30.2 µM; in test [5] it was 69.4 µM; in test [6], 23 µM; in test [7], 73.6 µM. Moreover, the TGI in test [8] is more than 100 µM.

Regarding `COc1ccc(OC)c(/C=N/N=C(\N)NO)c1`, the TGI was more than 100 µM in test [2]; more than 100 µM in test [3]; 66.2 µM in test [4]; more than 100 µM in test [5]; more than 100 µM in test [6]; more than 100 µM in test [7]. This molecule also had a TGI in test [8] of more than 100 µM.

Take `COC1(OC)C2(Cl)C(Cl)=C(Cl)C1(Cl)C1C2C2CC1(C(=O)O)c1ccccc12` (stereo unspecified): the TGI in test [1] is 30.5 µM; in test [2] it was 42.2 µM; in test [3] it was 28.4 µM; in test [4], 51.1 µM; in test [5], 43.1 µM; in test [6] it was 35.5 µM. The TGI in test [7] amounted to 56.8 µM; in test [8], 43.2 µM.

`O=C(/C=C\c1cccc2ccccc12)c1ccc(Cl)cc1Cl`: the TGI in test [1] is more than 100 µM; in test [3], more than 100 µM; in test [4], 45.5 µM; in test [5] it was 41.1 µM; in test [6], 30.7 µM; in test [7], 49.9 µM. The TGI in test [8] was 38.6 µM.

As to `CC(=O)[CH-]C(=O)c1ccccc1.CC(=O)[CH-]C(=O)c1ccccc1.CC(=O)[CH-]C(=O)c1ccccc1.[Nd+3].[OH3+]`, the GI50 was 38.1 µM in test [1]; 37.8 µM in test [3]; 47.3 µM in test [4]; 30.1 µM in test [5]; 37 µM in test [6]; 21.2 µM in test [7]. In addition, the GI50 in test [8] was 42.6 µM. For the same molecule, the TGI in test [1] is more than 100 µM; in test [3] it was more than 100 µM; in test [4], more than 100 µM; in test [5], more than 100 µM; in test [6], more than 100 µM; in test [7], 86.2 µM. Also, the TGI in test [8] is more than 100 µM.

Turning to `CC(=O)[C@H]1CCC2[C@@H]3CC=C4C[C@@H]([O-])CC[C@]4(C)C3CC[C@@]21C.CC(=O)[C@H]1CCC2[C@@H]3CC=C4C[C@@H]([O-])CC[C@]4(C)C3CC[C@@]21C.CC(=O)[CH-]C(=O)c1ccccc1.CC(=O)[CH-]C(=O)c1ccccc1.Cl.[Ti+4]` (stereo partly specified), the GI50 is 18.3 µM in test [1]; 13.4 µM in test [3]; 39.3 µM in test [4]; 4.64 µM in test [5]; 17.4 µM in test [7]; 12.7 µM in test [8]. Moreover, the TGI was more than 100 µM in test [1]; 29.5 µM in test [3]; more than 100 µM in test [4]; more than 100 µM in test [5]; 46.4 µM in test [7]; more than 100 µM in test [8].

As to `COC(=O)C1C(=O)O[C@@H](c2cc(OC)c(OC)cc2OC)C1C(=O)OC` (mixture of isomers), the TGI in test [1], in test [2], in test [3], in test [4], in test [5] and in test [6] was more than 100 µM throughout. Moreover, the TGI in test [7] and in test [8] was more than 100 µM each time.

Regarding `O=C(/C=C/c1cccc([N+](=O)[O-])c1)c1ccc([N+](=O)[O-])cc1`, the TGI in test [1], in test [2], in test [3], in test [4], in test [5] and in test [6] was more than 100 µM each time. For the same molecule, the TGI in test [7] and in test [8] was more than 100 µM each time.

Take `Clc1cccc(C2N3CCCCC3[C@@H]3c4[nH]c5ccccc5c4CCN23)c1` (stereo partly specified): the TGI is 34.1 µM in test [1]; 45 µM in test [3]; 44.1 µM in test [5]; 73.5 µM in test [6]; more than 100 µM in test [7]; 65.8 µM in test [8].

In the case of `NC1=NN(c2ccccc2)C(=O)C1C(=O)C(=O)Nc1ccc(Cl)c(Cl)c1` (stereo unspecified), the TGI in test [1], in test [2], in test [3], in test [4], in test [5] and in test [6] was more than 100 µM in each case. For the same molecule, the TGI in test [7] and in test [8] was more than 100 µM throughout.
